Molecular target: T1, human Nav1.8 (hNav1.8) ion channel (Homo sapiens, UniProt Q9Y5Y9)
T1 construct: expressed in transfected cells
Test: Inhibition of human Nav1.8 stably expressed in SH-SY-5Y cells (membrane potential dye fluorescence assay)
Assay type: cell-based
Details: SH-SY-5Y hNav1.8 cells; FLIPR membrane potential dye; 10 μM pyrethroid, 250 nM TTX; test concentration range 100 μM-0.05 μM; read-out: hNav1.8 IC50
Protocol: Inhibition of Human Nav1.8 stably expressed in SH-SY-5Y Cells
A SH-SY-5Y neuroblastoma cell line stably expressing the human Nav1.8 (hNav1.8) ion channel was constructed. This cell line has been used to develop a medium to high throughput assay for determining the ability of test compounds to inhibit membrane depolarisation mediated via the hNav1.8 channel.
SH-SY-5Y hNav1.8 are grown in adherent monolayer culture using 50:50 Ham's F-12/EMEM tissue culture medium supplemented with 15% (v/v) foetal bovine serum; 2 mM L-glutamine, 1% NEAR and 600 μg·ml^−1 Geneticin sulphate. Cells are removed from the tissue culture flask using trypsin/EDTA and re-plated into black walled, clear bottom 96-well assay plates at 50,000 cells·well^−1 24 hours prior to assay.
On the day of assay the cell assay plates are washed to remove cell culture medium using a sodium free assay buffer (145 mM tetramethyl ammonium chloride; 2 mM calcium chloride; 0.8 mM magnesium chloride hexahydrate; 10 mM HEPES; 10 mM glucose; 5 mM potassium chloride, pH 7.4). Fluorescent membrane potential dye solution (FLIPR™ membrane potential dye, Molecular Devices Corporation), containing 10 μM of a pyrethroid to prevent channel inactivation and 250 nM tetrodotoxin (TTX) to reduce interference from TTX-sensitive sodium channels present in the cell line. Test compound, initially dissolved in dimethyl sulfoxide but further diluted in sodium free buffer, is added to achieve the final test concentration range of 100 μM-0.05 μM.
Cell plates are incubated for 30 minutes at room temperature to allow equilibration of dye and test compound. Plates are then transferred to a fluorescence plate reader for fluorescence measurement using an excitation wavelength of 530 nm whilst measuring fluorescence emission at 565 nm. Baseline fluorescence levels are first determined before the addition of a sodium containing buffer (220 mM sodium chloride; 2 mM calcium chloride; 0.8 mM magnesium chloride hexahydrate; 10 mM HEPES; 10 mM glucose; 5 mM potassium chloride. pH 7.4) to cause membrane depolarisation in those cells where channel block has not been effected (final sodium concentration=72.5 mM). Membrane depolarisation is registered by an increase in fluorescence emission at 565 nm.
The change in fluorescence seen in each test well upon the addition of sodium containing buffer is calculated relative to the baseline fluorescence for that well. This figure is then used for calculating the IC50 for each test compound.

T1 sequence (Q9Y5Y9 whole entry): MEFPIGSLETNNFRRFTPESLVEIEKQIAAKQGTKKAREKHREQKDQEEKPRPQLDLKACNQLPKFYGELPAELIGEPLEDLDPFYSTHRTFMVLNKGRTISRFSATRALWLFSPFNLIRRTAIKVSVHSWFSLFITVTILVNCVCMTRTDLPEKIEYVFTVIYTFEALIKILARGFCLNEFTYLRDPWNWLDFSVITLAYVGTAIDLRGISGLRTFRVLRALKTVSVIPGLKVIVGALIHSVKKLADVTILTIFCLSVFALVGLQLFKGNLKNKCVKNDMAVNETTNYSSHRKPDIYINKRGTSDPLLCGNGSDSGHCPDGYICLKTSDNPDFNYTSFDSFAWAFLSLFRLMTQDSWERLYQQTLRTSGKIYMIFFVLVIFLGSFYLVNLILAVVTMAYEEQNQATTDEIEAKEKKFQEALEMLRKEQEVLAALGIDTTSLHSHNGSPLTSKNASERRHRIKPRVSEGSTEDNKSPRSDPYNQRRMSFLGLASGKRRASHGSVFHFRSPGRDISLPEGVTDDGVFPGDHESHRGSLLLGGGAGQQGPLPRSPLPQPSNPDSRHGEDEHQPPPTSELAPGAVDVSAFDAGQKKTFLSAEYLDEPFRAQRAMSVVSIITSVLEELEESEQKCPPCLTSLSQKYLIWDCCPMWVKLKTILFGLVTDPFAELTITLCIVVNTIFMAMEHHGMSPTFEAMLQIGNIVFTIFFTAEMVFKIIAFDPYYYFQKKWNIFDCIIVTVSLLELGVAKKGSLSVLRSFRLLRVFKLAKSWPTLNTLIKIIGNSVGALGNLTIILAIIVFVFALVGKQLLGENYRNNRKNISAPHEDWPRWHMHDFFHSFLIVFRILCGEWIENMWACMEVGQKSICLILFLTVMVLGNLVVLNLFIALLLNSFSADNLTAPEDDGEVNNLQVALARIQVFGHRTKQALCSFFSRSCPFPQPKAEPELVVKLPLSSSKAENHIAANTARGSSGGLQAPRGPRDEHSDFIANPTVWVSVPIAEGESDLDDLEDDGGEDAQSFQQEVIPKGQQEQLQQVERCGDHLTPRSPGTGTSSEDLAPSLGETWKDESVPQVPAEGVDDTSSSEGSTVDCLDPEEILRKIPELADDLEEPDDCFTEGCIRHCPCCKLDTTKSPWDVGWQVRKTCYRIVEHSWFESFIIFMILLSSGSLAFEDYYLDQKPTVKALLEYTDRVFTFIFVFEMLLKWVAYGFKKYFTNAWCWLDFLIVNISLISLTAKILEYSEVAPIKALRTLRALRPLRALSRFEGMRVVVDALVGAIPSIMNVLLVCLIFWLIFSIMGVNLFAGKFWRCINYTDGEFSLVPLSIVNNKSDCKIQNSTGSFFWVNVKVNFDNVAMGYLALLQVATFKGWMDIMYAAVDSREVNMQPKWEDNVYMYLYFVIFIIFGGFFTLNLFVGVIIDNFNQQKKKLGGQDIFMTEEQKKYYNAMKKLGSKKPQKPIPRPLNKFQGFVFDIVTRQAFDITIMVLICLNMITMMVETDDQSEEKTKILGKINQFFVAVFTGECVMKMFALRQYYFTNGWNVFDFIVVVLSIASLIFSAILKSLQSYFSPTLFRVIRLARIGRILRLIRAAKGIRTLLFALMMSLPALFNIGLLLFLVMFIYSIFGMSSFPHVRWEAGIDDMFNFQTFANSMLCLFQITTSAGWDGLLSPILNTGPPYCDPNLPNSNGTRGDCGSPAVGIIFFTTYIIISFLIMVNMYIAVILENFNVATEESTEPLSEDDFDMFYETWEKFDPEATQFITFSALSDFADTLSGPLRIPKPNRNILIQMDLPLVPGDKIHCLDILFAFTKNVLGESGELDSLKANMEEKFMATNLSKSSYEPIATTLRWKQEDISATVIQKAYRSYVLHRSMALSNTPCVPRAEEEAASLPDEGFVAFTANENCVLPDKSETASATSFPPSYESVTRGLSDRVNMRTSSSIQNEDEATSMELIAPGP

SMILES | IC50 [nM]
CC(c1ccccc1Cl)N1CC2CC1CN2C(=O)c1ccc(Oc2ccc(F)cc2)cc1 (stereo not shown) [Example 151, {5-[1-(2-Chloro-phenyl)-ethyl]-2,5-diaza-bicyclo[2.2.1]hept-2-yl}-[4-(4-fluoro-phenoxy)-phenyl]-methanone] | 1110
CC(c1ccccc1Cl)N1CC2CC1CN2C(=O)Nc1ccc(Oc2ccccc2)cc1 (single isomer, unassigned) [Example 11, 5-[1-(2-Chloro-phenyl)-ethyl]-2,5-diaza-bicyclo[2.2.1]heptane-2-carboxylic acid (4-phenoxy-phenyl)-amide] | 1800
CC(c1ccccc1Cl)N1CC2CC1CN2C(=O)N(C)c1ccc(Oc2ccc(F)cc2)cc1 (stereo not shown) [Example 143, 5-[1-(2-Chloro-phenyl)-ethyl]-2,5-diaza-bicyclo[2.2.1]heptane-2-carboxylic acid [4-(4-fluoro-phenoxy)-phenyl]-methyl-amide] | 3210
Cc1ccsc1C(C)N1CC2CC1CN2C(=O)Nc1ccc(C(F)(F)F)cc1 (stereo not shown) [Example 15, 5-[1-(3-Methyl-thiophen-2-yl)-ethyl]-2,5-diaza-bicyclo[2.2.1]heptane-2-carboxylic acid (4-trifluoromethyl-phenyl)-amide] | 3040
CCCCOc1ccc(NC(=O)N2CC3CC2CN3Cc2sccc2C)cc1 (stereo not shown) [Example 3, 5-(3-Methyl-thiophen-2-ylmethyl)-2,5-diaza-bicyclo[2.2.1]heptane-2-carboxylic acid (4-butoxy-phenyl)-amide] | 1030
O=C(Nc1ccc(Oc2cccc(F)c2)cc1)N1CC2CC1CN2C1Cc2ccccc2C1 (stereo not shown) [Example 114, 5-Indan-2-yl-2,5-diaza-bicyclo[2.2.1]heptane-2-carboxylic acid [4-(3-fluoro-phenoxy)-phenyl]-amide] | 80
CC(c1ccc(F)cc1)N1CC2CC1CN2C(=O)Nc1ccc(C(F)(F)F)cc1 (stereo not shown) [Example 53, 5-[1-(4-Fluoro-phenyl)-ethyl]-2,5-diaza-bicyclo[2.2.1]heptane-2-carboxylic acid (4-trifluoromethyl-phenyl)-amide] | 2500
Cc1ccccc1C(C)N1CC2CC1CN2C(=O)Nc1ccc(C(O)c2ccccc2)cc1 (stereo not shown) [Example 68, 5-(1-o-Tolyl-ethyl)-2,5-diaza-bicyclo[2.2.1]heptane-2-carboxylic acid [4-(hydroxy-phenyl-methyl)-phenyl]-amide] | 6150
CC(c1ccccc1Cl)N1CC2CC1CN2C(=O)c1ccc(Oc2cccc(C#N)c2)cc1 (stereo not shown) [Example 174, 3-(4-{5-[1-(2-Chloro-phenyl)-ethyl]-2,5-diaza-bicyclo[2.2.1]heptane-2-carbonyl}-phenoxy)-benzonitrile] | 1400
Cc1ccccc1C(C)N1CC2CC1CN2C(=O)Nc1ccc(C(F)(F)F)cc1 (stereo not shown) [Example 6, 5-(1-o-Tolyl-ethyl)-2,5-diaza-bicyclo[2.2.1]heptane-2-carboxylic acid (4-trifluoromethyl-phenyl)-amide] | 990
O=C(Nc1ccc(Oc2ccc(F)cc2)cc1)N1CC2CC1CN2C1Cc2ccccc2C1 (stereo not shown) [Example 106, 5-Indan-2-yl-2,5-diaza-bicyclo[2.2.1]heptane-2-carboxylic acid [4-(4-fluoro-phenoxy)-phenyl]-amide] | 170
O=C(Nc1ccc(C(F)(F)F)cc1)N1CC2CC1CN2C1CCc2cc(F)ccc2C1 (stereo not shown) [Example 100, 5-(6-Fluoro-1,2,3,4-tetrahydro-naphthalen-2-yl)-2,5-diaza-bicyclo[2.2.1]heptane-2-carboxylic acid (4-trifluoromethyl-phenyl)-amide] | 640
CCOCCOCCOc1ccc(NC(=O)N2CC3CC2CN3C(C)c2ccccc2C)cc1 (stereo not shown) [Example 16, 5-(1-o-Tolyl-ethyl)-2,5-diaza-bicyclo[2.2.1]heptane-2-carboxylic acid {4-[2-(2-ethoxy-ethoxy)-ethoxy]-phenyl}-amide] | 25600
Cc1cc(F)ccc1C(C)N1CC2CC1CN2C(=O)Nc1ccc(C(=O)c2ccccc2)cc1 (stereo not shown) [Example 71, 5-[1-(4-Fluoro-2-methyl-phenyl)-ethyl]-2,5-diaza-bicyclo[2.2.1]heptane-2-carboxylic acid (4-benzoyl-phenyl)-amide] | 2360
CC(Cc1ccccc1F)N1CC2CC1CN2C(=O)Nc1ccc(C(F)(F)F)cc1 (stereo not shown) [Example 79, 5-[2-(2-Fluoro-phenyl)-1-methyl-ethyl]-2,5-diaza-bicyclo[2.2.1]heptane-2-carboxylic acid (4-trifluoromethyl-phenyl)-amide] | 780
CC(c1ccccc1Cl)N1CC2CC1CN2C(=O)Nc1ccc(Oc2ccc(F)cc2)cc1 (single isomer, unassigned) [Example 73, 5-[1-(2-Chloro-phenyl)-ethyl]-2,5-diaza-bicyclo[2.2.1]heptane-2-carboxylic acid [4-(4-fluoro-phenoxy)-phenyl]-amide] | 1130
Cc1ccccc1C(C)N1CC2CC1CN2C(=O)Nc1ccc(Oc2ccccc2)cc1 (stereo not shown) [Example 30, 5-(1-o-Tolyl-ethyl)-2,5-diaza-bicyclo[2.2.1]heptane-2-carboxylic acid (4-phenoxy-phenyl)-amide] | 320
O=C(Nc1ccc(Oc2ccc(F)cc2)cc1)N1CC2CN(Cc3ccccc3)CC2C1 (stereo not shown) [Example 98, 5-Benzyl-hexahydro-pyrrolo[3,4-c]pyrrole-2-carboxylic acid [4-(4-fluoro-phenoxy)-phenyl]-amide] | 170
CCCCOc1ccc(NC(=O)N2CC3CC2CN3C(C)c2ccccc2C)cc1 (stereo not shown) [Example 5, 5-(1-o-Tolyl-ethyl)-2,5-diaza-bicyclo[2.2.1]heptane-2-carboxylic acid (4-butoxy-phenyl)-amide] | 570
CC(c1ccccc1Cl)N1CC2CN(C(=O)Nc3ccc(Oc4ccc(F)cc4)cc3)CC2C1 (stereo not shown) [Example 107, 5-[1-(2-Chloro-phenyl)-ethyl]-hexahydro-pyrrolo[3,4-c]pyrrole-2-carboxylic acid [4-(4-fluoro-phenoxy)-phenyl]-amide] | 1130
O=C(Nc1ccc(C(F)(F)F)cc1)N1CC2CC1CN2C1CCc2cc(F)ccc21 (stereo not shown) [Example 94, 5-(5-Fluoro-indan-1-yl)-2,5-diaza-bicyclo[2.2.1]heptane-2-carboxylic acid (4-trifluoromethyl-phenyl)-amide] | 1890
CC(c1ccc(C#N)cc1)N1CC2CC1CN2C(=O)Nc1ccc(Oc2ccc(F)cc2)cc1 (stereo not shown) [Example 90, 5-[1-(4-Cyano-phenyl)-ethyl]-2,5-diaza-bicyclo[2.2.1]heptane-2-carboxylic acid [4-(4-fluoro-phenoxy)-phenyl]-amide] | 1400
CC(c1ccccc1C(F)(F)F)N1CC2CC1CN2C(=O)Nc1ccc(Oc2ccccc2)cc1 (single isomer, unassigned) [Example 62, 5-[1-(2-Trifluoromethyl-phenyl)-ethyl]-2,5-diaza-bicyclo[2.2.1]heptane-2-carboxylic acid (4-phenoxy-phenyl)-amide] | 17200
CC(c1ccc(Cl)cc1Cl)N1CC2CC1CN2C(=O)Nc1ccc(C(F)(F)F)cc1 (stereo not shown) [Example 120, 5-[1-(2,4-Dichloro-phenyl)-ethyl]-2,5-diaza-bicyclo[2.2.1]heptane-2-carboxylic acid (4-trifluoromethyl-phenyl)-amide] | 24500
Cc1ccccc1C(C)N1CC2CC1CN2C(=O)Nc1ccc(OCCN2CCCC2)cc1 (stereo not shown) [Example 41, 5-(1-o-Tolyl-ethyl)-2,5-diaza-bicyclo[2.2.1]heptane-2-carboxylic acid [4-(2-pyrrolidin-1-yl-ethoxy)-phenyl]-amide] | ≥ 30000

Same assay, conditions: hNav1.8 IC50, SH-SY-5Y hNav1.8 cells; FLIPR membrane potential dye; 10 μM pyrethroid, 250 nM TTX; test concentration range 100 μM-0.05 μM

SMILES | IC50 [nM]
O=C(Cc1ccc(Oc2ccc(F)cc2)cc1)N1CC2CC1CN2C1CCc2ccccc2C1 (stereo not shown) [Example 142, 2-[4-(4-Fluoro-phenoxy)-phenyl]-1-[5-(1,2,3,4-tetrahydro-naphthalen-2-yl)-2,5-diaza-bicyclo[2.2.1]hept-2-yl]-ethanone] | 280
Cc1ccccc1C(C)N1CC2CC1CN2C(=O)Cc1ccc(Oc2cccc(F)c2)cc1 (stereo not shown) [Example 172, 2-[4-(3-Fluoro-phenoxy)-phenyl]-1-[5-(1-o-tolyl-ethyl)-2,5-diaza-bicyclo[2.2.1]hept-2-yl]-ethanone] | 710
CC(c1ccccc1Cl)N1CC2CC1CN2C(=O)Cc1ccc(Oc2ccc(F)cc2)cc1 (stereo not shown) [Example 136, 1-{5-[1-(2-Chloro-phenyl)-ethyl]-2,5-diaza-bicyclo[2.2.1]hept-2-yl}-2-[4-(4-fluoro-phenoxy)-phenyl]-ethanone] | 2410

From patent US20100204224A1, “AZACYCLIC COMPOUNDS AS INHIBITORS OF SENSORY NEURONE SPECIFIC SODIUM CHANNELS” (priority 2005, published 2010)
